Assay results: patent publication US12617758B2, “Quinazoline derivative having FLT3 inhibitory activity, and use thereof” (INDUSTRY-UNIVERSITY COOPERATION FOUNDATION HANYANG …, priority 2020, dated 2026)

Experiments:
Assay type in all cases: biochemical
FLT3 = target: T1, FLT3 (Homo sapiens, UniProt P36888); experiment: FLT3 enzyme activity (IC50); conditions: read-out: FLT3 IC50
T1 sequence (P36888 27-993): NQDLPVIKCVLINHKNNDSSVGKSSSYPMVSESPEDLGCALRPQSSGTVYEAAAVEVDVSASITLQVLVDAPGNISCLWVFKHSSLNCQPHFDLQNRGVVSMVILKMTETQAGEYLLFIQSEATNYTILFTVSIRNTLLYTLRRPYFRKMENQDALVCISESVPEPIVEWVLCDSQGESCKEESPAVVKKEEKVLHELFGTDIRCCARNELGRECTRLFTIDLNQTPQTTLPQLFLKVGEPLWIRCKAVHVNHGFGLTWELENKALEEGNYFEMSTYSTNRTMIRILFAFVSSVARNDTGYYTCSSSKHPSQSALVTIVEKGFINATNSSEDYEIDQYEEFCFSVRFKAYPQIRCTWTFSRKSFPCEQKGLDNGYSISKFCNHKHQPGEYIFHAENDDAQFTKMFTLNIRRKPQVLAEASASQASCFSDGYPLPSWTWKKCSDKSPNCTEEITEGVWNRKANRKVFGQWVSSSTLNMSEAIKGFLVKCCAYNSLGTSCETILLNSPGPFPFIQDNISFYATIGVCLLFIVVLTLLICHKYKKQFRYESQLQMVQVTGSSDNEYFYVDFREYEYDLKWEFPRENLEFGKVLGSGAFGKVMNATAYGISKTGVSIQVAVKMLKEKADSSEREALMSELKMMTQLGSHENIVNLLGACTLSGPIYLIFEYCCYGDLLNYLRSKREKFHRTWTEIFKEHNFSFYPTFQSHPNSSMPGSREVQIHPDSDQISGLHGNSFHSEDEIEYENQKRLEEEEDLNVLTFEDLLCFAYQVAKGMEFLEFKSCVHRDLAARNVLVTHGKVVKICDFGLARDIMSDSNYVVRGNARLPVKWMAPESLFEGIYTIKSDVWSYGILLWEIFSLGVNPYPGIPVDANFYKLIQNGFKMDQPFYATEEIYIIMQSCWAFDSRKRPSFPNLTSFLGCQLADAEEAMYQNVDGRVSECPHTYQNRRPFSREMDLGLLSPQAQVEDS
From the text: (§1) Experimental Example 1. Measurement of FLT3 and FLT Enzyme Activity
(§2) Changes in FLT3 and FLT enzyme activities by treatment with the quinazoline derivatives of the following Table 1 according to the present invention were confirmed by IC50.

FLT (ITD) = target: T2, FLT (ITD) (Homo sapiens, UniProt P36888); experiment: FLT (ITD) enzyme activity (IC50); conditions: read-out: FLT (ITD) IC50
T2 sequence (P36888 1-993): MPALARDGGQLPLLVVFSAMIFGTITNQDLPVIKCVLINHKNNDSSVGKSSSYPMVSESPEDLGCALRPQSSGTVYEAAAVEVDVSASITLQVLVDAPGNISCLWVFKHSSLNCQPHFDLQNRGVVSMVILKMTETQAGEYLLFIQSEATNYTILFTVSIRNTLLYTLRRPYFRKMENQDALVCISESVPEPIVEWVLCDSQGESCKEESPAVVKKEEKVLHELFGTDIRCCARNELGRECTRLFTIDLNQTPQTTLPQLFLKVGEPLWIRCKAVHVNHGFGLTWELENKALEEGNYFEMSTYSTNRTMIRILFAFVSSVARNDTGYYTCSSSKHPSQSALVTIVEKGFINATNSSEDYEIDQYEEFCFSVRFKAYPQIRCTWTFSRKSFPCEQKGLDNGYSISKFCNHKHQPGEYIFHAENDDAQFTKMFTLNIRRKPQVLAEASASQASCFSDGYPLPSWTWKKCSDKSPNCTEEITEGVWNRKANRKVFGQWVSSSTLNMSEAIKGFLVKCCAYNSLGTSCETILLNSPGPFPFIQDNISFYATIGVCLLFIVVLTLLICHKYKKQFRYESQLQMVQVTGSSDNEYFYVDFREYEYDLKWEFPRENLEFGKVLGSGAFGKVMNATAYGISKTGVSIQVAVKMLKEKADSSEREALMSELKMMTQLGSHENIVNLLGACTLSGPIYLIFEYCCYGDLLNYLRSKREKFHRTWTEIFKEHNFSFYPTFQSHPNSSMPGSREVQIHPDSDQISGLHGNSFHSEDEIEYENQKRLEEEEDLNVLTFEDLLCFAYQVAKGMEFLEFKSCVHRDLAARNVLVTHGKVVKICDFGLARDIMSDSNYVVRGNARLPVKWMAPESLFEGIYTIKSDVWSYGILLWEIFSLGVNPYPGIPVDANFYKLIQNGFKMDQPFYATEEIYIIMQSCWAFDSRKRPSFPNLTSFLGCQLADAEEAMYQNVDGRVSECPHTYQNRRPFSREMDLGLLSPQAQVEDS
From the text: as §1, §2

RIPK3 = RIPK3 (Homo sapiens, UniProt Q9Y572); experiment: Kinase panel screening; conditions: read-out: IC50 (nM), data of GW5074, control GW5074 instead of staurosporine
Method: Next, kinase panel screening for Compound 7d was investigated for 36 different kinases at a single dose of 10 μM (FIG. 1 and Table 3).

ERK1 = ERK1 (Homo sapiens, UniProt P27361); experiment: Kinase panel screening; conditions: control SCH772984 instead of staurosporine
ERK1, sequence (P27361 whole entry, species assumed): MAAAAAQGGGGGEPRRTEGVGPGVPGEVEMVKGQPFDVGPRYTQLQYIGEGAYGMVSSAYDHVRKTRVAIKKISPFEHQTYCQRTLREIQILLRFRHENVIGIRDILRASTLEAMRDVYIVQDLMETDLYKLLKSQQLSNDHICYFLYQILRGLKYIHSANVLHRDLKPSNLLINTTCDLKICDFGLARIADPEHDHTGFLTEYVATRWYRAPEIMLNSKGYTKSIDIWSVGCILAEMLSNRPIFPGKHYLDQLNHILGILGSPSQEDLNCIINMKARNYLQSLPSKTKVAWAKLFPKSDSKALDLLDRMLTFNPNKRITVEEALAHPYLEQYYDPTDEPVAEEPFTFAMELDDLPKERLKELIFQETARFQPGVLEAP

RIPK3, sequence (Q9Y572 whole entry, species assumed): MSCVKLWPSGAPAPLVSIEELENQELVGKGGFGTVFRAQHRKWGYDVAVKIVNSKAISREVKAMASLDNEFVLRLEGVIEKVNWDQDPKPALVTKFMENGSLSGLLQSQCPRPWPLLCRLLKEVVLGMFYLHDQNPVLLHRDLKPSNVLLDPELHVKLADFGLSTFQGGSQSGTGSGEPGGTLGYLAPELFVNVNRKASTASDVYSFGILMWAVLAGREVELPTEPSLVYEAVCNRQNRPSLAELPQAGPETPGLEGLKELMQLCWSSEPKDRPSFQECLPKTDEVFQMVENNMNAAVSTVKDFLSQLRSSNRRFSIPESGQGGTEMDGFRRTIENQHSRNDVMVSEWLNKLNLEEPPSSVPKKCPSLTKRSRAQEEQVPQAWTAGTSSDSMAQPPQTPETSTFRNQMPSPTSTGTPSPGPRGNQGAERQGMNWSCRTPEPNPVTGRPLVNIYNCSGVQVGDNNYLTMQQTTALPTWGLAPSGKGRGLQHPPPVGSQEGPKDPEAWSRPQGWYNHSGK

Row | Compound | IC50 (FLT3) | IC50 (FLT (ITD)) | IC50 (RIPK3) | IC50 (ERK1)
1 | Cc1oncc1C(=O)Nc1ccc2cnc(-c3cccc(Cl)c3)nc2c1 [Compound 7i, N-(2-(3-chlorophenyl)quinazolin-7-yl)-5-methylisoxazole-4-carboxamide] | > 10 µM | > 10 µM | – | –
2 | Cc1oncc1C(=O)Nc1ccc2cnc(Cc3ccc(F)cc3)nc2c1 [Compound 7s, N-(2-(4-fluorobenzyl)quinazolin-7-yl)-5-methylisoxazole-4-carboxamide] | > 10 µM | > 10 µM | – | –
3 | Cc1oncc1C(=O)Nc1ccc2cnc(-c3ccc(Cl)c(Cl)c3)nc2c1 [Compound 7r, N-(2-(3,4-dichlorophenyl)quinazolin-7-yl)-5-methylisoxazole-4-carboxamide] | > 10 µM | > 10 µM | – | –
4 | Cc1oncc1C(=O)Nc1ccc2cnc(-c3ccc4c(c3)CCO4)nc2c1 [Compound 7v, N-(2-(2,3-dihydrobenzofuran-5-yl)quinazolin-7-yl)-5-methylisoxazole-4-carboxamide] | > 10 µM | > 10 µM | – | –
5 | Cc1oncc1C(=O)Nc1ccc2cnc(-c3ccc4ccccc4c3)nc2c1 [Compound 7u, 5-methyl-N-(2-(naphthalen-2-yl)quinazolin-7-yl)isoxazole-4-carboxamide] | > 10 µM | > 10 µM | – | –
6 | COc1ccc(/C=C/c2ncc3ccc(NC(=O)c4cnoc4C)cc3n2)cc1 [Compound 7j, (E)-N-(2-(4-methoxystyryl)quinazolin-7-yl)-5-methylisoxazole-4-carboxamide] | 3 to 10 µM | > 10 µM | – | –
7 | Cc1oncc1C(=O)Nc1ccc2cnc(-c3cc(OC4CCN(C)CC4)cc(C(F)(F)F)c3)nc2c1 [Compound 7n, 5-methyl-N-(2-(3-((1-methylpiperidin-4-yl)oxy)-5-(trifluoromethyl)phenyl)quinazolin-7-yl)isoxazole-4-carboxamide] | 3 to 10 µM | 3 to 10 µM | – | –
8 | CC(=O)N1CCC(c2ncc3ccc(NC(=O)c4cnoc4C)cc3n2)CC1 [Compound 7o, N-(2-(1-acetylpiperidin-4-yl)quinazolin-7-yl)-5-methylisoxazole-4-carboxamide] | > 10 µM | > 10 µM | – | –
9 | Cc1oncc1C(=O)Nc1ccc2cnc(/C=C/c3ccc(Cl)cc3)nc2c1 [Compound 7k, (E)-N-(2-(4-chlorostyryl)quinazolin-7-yl)-5-methylisoxazole-4-carboxamide] | > 10 µM | > 10 µM | – | –
10 | Cc1oncc1C(=O)Nc1ccc2cnc(-c3cnn(-c4ccccc4)c3C(F)(F)F)nc2c1 [Compound 7h, 5-methyl-N-(2-(1-phenyl-5-(trifluoromethyl)-1H-pyrazol-4-yl)quinazolin-7-yl)isoxazole-4-carboxamide] | > 10 µM | > 10 µM | – | –
11 | Cc1oncc1C(=O)Nc1ccc2cnc(-c3cc(C(C)(C)C)on3)nc2c1 [Compound 7l, N-(2-(5-(tert-butyl)isoxazol-3-yl)quinazolin-7-yl)-5-methylisoxazole-4-carboxamide] | > 10 µM | > 10 µM | – | –
12 | Cc1oncc1C(=O)Nc1ccc2cnc(-c3cc(N4CCOCC4)cc(C(F)(F)F)c3)nc2c1 [Compound 7b, 5-methyl-N-(2-(3-morpholino-5-(trifluoromethyl)phenyl)quinzolin-7-yl)isoxazole-4-carboxamide] | 3 to 10 µM | 3 to 10 µM | – | –
13 | Cc1oncc1C(=O)Nc1ccc2cnc(-c3ccncc3)nc2c1 [Compound 7p, 5-methyl-N-(2-(pyridin-4-yl)quinazolin-7-yl)isoxazole-4-carboxamide] | > 10 µM | > 10 µM | – | –
14 | Cc1oncc1C(=O)Nc1ccc2cnc(-c3cc(F)cc(C(F)(F)F)c3)nc2c1 [Compound 7f, N-(2-(3-fluoro-5-(trifluoromethyl)phenyl)quinazolin-7-yl)-5-methylisoxazole-4-carboxamide] | > 10 µM | > 10 µM | – | –
15 | Cc1oncc1C(=O)Nc1ccc2cnc(-c3ccc(N4CCOCC4)c(C(F)(F)F)c3)nc2c1 [Compound 7a, 5-methyl-N-(2-(4-morpholino-5-(trifluoromethyl)phenyl)quinazolin-7-yl)isoxazole-4-carboxamide] | > 10 µM | > 10 µM | – | –
16 | CCN1CCN(Cc2cc(-c3ncc4ccc(NC(=O)c5cnoc5C)cc4n3)cc(C(F)(F)F)c2)CC1 [Compound 7e, N-(2-(3-((4-ethylpiperazin-1-yl)methyl)-5-(trifluoromethyl)phenyl)quinazolin-7-yl)-5-methylisoxazole-4-carboxamide] | < 3 µM | 3 to 10 µM | – | –
17 | Cc1oncc1C(=O)Nc1ccc2cnc(Cc3ccccc3C(F)(F)F)nc2c1 [Compound 7t, 5-methyl-N-(2-(2-(trifluoromethyl)benzyl)quinazolin-7-yl)isoxazole-4-carboxamide] | > 10 µM | > 10 µM | – | –
18 | O=C1Nc2ccc(I)cc2/C1=C/c1cc(Br)c(O)c(Br)c1 [GW5074, reference compound] | – | – | 1650 nM | –
19 | Cc1cn(-c2cc(-c3ncc4ccc(NC(=O)c5cnoc5C)cc4n3)cc(C(F)(F)F)c2)cn1 [Compound 7c, 5-methyl-N-(2-(3-(4-methyl-1H-imidazol-1-yl)-5-(trifluoromethyl)phenyl)quinazolin-7-yl)isoxazole-4-carboxamide] | < 3 µM | < 3 µM | – | –
20 | O=C(Nc1ccc2[nH]nc(-c3ccncc3)c2c1)[C@@H]1CCN(CC(=O)N2CCN(c3ccc(-c4ncccn4)cc3)CC2)C1 [SCH772984, reference compound] | – | – | – | 4.47 nM
21 | Cc1oncc1C(=O)Nc1ccc2cnc(-c3ccccn3)nc2c1 [Compound 7q, 5-methyl-N-(2-(pyridin-2-yl)quinazolin-7-yl)isoxazole-4-carboxamide] | > 10 µM | > 10 µM | – | –
22 | Cc1oncc1C(=O)Nc1ccc2cnc(-c3ccc(Cl)c(C(F)(F)F)c3)nc2c1 [Compound 7g, N-(2-(4-chloro-3-(trifluoromethyl)phenyl)quinazolin-7-yl)-5-methylisoxazole-4-carboxamide] | > 10 µM | > 10 µM | – | –
23 | COc1ccc(CCc2ncc3ccc(NC(=O)c4cnoc4C)cc3n2)cc1 [Compound 7w, N-(2-(4-methoxyphenethyl)quinazolin-7-yl)-5-methylisoxazole-4-carboxamide] | > 10 µM | > 10 µM | – | –
